Marks after values point to notes of the source that are not given here.
What was measured:
Botrytis cinerea = assay: Test B: tomato Botrytis, preventive spray on tomato seedlings, visual disease rating; settings: tomato Botrytis, preventive spray; for Test B rating (% disease control): 100 = 100% disease control, 0 = no control
From the text: (§1) General protocol for preparing test suspensions for Tests A-J: the test compounds were first dissolved in acetone in an amount equal to 3% of the final volume and then suspended at the desired concentration (in ppm) in acetone and purified water (50/50 mix by volume) containing 250 ppm of the surfactant Trem® 014 (polyhydric alcohol esters). The resulting test suspensions were then used in Tests A-J. Spraying a 200 ppm test suspension to the point of run-off on the test plants was the equivalent of a rate of 500 g/ha. Unless otherwise indicated, the rating values indicate a 200 ppm test suspension was used. (An asterisk “*” next to the rating value indicates a 40 ppm test suspension was used.)
The test suspension was sprayed to the point of run-off on tomato seedlings. The following day the seedlings were inoculated with a spore suspension of Botrytis cinerea (the causal agent of tomato Botrytis) and incubated in saturated atmosphere at 20° C. for 48 h, and then moved to a growth chamber at 24° C. for 3 additional days, after which time visual disease ratings were made.

Septoria tritici = assay: Test G: wheat leaf blotch, preventive spray on wheat seedlings, visual disease rating; settings: wheat leaf blotch, preventive spray; for Test G rating (% disease control): 100 = 100% disease control, 0 = no control
From the text: as §1
The test suspension was sprayed to the point of run-off on wheat seedlings. The following day the seedlings were inoculated with a spore suspension of Septoria tritici (the causal agent of wheat leaf blotch) and incubated in saturated atmosphere at 24° C. for 48 h. and then the seedlings were moved to a growth chamber at 20° C. for 19 additional days, after which time visual disease ratings were made.

[1] = system: Puccinia recondita f. sp. tritici; assay: Test I: wheat leaf rust, preventive spray on wheat seedlings, visual disease rating; settings: wheat leaf rust, preventive spray; for Test I rating (% disease control): 100 = 100% disease control, 0 = no control
From the text: as §1
The test suspension was sprayed to the point of run-off on wheat seedlings. The following day the seedlings were inoculated with a spore suspension of Puccinia recondita f. sp. tritici (the causal agent of wheat leaf rust) and incubated in a saturated atmosphere at 20° C. for 24 h, and then moved to a growth chamber at 20° C. for 7 days, after which time visual disease ratings were made
A dash (-) indicates no test results.

Septoria nodorum = assay: Test F: Septoria glume blotch, preventive spray on wheat seedlings, visual disease rating; settings: preventive spray; for Test F rating (% disease control): Septoria glume blotch on wheat, 100 = 100% disease control, 0 = no control
Alternaria solani = assay: Test C: tomato early blight, preventive spray on tomato seedlings, visual disease rating; settings: tomato early blight, preventive spray; for Test C rating (% disease control): 100 = 100% disease control, 0 = no control
[2] = system: Puccinia recondita f. sp. tritici; assay: Test H: wheat leaf rust, curative spray on inoculated wheat seedlings, visual disease rating; settings: wheat leaf rust, curative spray; for Test H rating (% disease control): 100 = 100% disease control, 0 = no control
From the text: as §1
Wheat seedlings were inoculated with a spore suspension of Puccinia recondita f. sp. tritici (the causal agent of wheat leaf rust) and incubated in a saturated atmosphere at 20° C. for 24 h, and then moved to a growth chamber at 20° C. for 2 days. At the end of this time the test suspension was sprayed to the point of run-off, and then the seedlings were moved to a growth chamber at 20° C. for 6 days after which time visual disease ratings were made.

[3] = system: Erysiphe graminis f sp. tritici; assay: Test J: wheat powdery mildew, preventive spray on wheat seedlings, visual disease rating; settings: wheat powdery mildew, preventive spray; for Test J rating (% disease control): 100 = 100% disease control, 0 = no control
[4] = rating marked with asterisk (different test condition, key not given)

Row | SMILES | Test B rating (% disease control) (Botrytis cinerea) | Test G rating (% disease control) (Septoria tritici) | Test I rating (% disease control) [1] | Test F rating (% disease control) (Septoria nodorum) | Test C rating (% disease control) (Alternaria solani) | Test H rating (% disease control) [2] | Test J rating (% disease control) [3] | Test B rating (% disease control), value marked * (Botrytis cinerea; [4]) | Test G rating (% disease control), value marked * (Septoria tritici; [4]) | Test I rating (% disease control), value marked * [1, 4] | Test F rating (% disease control), value marked * (Septoria nodorum; Septoria glume blotch, rating marked with asterisk (different test condition, key not given)) | Test C rating (% disease control), value marked * (Alternaria solani; [4]) | Test H rating (% disease control), value marked * [2, 4] | Test J rating (% disease control), value marked * [3, 4]
1 | Cc1nn(C)c(Nc2c(F)cc(F)cc2F)c1-c1ccc(F)c(F)c1 [compound 35] | 100% | 95% | 97% | 0% | 0% | 0% | 100% |  |  |  |  |  |  | 
2 | Cc1nn(C)c(Oc2ccc(Cl)cc2Cl)c1-c1c(F)cc(F)cc1F [compound 38] | 99% | 97% | 99% | 0% | 9% | 0% | 99% |  |  |  |  |  |  | 
3 | Cc1nn(C)c(Oc2ccc(Cl)cn2)c1-c1c(F)cc(F)cc1F [compound 39] | 100% | 99% | 99% | 0% | 99% | 99% | 99% |  |  |  |  |  |  | 
4 | COc1cc(F)c(-c2c(C)nn(C)c2Oc2ccc(Cl)cc2Cl)c(F)c1 [compound 40] | 99% | 94% | 99% | 0% | 0% | 92% | 99% |  |  |  |  |  |  | 
5 | COc1cc(F)c(Nc2c(-c3ccc(F)cc3F)c(C)nn2C)c(F)c1 [compound 42] | 100% | 93% | 94% | 0% | 0% | 0% | 82% |  |  |  |  |  |  | 
6 | Cc1nn(C)c(Oc2c(F)cc(C#N)cc2F)c1-c1cccc(F)c1 [compound 43] | 76% | 97% | 82% | 0% | 0% | 66% | 99% |  |  |  |  |  |  | 
7 | Cc1nn(C)c(Oc2c(F)cc(C#N)cc2F)c1-c1ccc(Cl)cc1 [compound 44] | 82% | 96% | 9% | 0% | 0% | 7% | 0% |  |  |  |  |  |  | 
8 | COc1ccc(-c2c(C)nn(C)c2Oc2c(F)cc(C#N)cc2F)c(F)c1 [compound 46] | 99% | 100% | 100% | 99% | 100% | 37% | 99% |  |  |  |  |  |  | 
9 | COc1cc(F)c(-c2c(C)nn(C)c2Oc2ccc(Cl)cn2)c(F)c1 [compound 47] |  |  |  |  |  |  |  | 100* % | 99* % | 96* % | 0* % | 87* % | 37* % | 99* %
10 | COc1cc(F)c(-c2c(C)nn(C)c2Nc2ccc(F)c(F)c2)c(F)c1 [compound 48] | 100% | 99% | 98% | 0% | 78% | 0% | 98% |  |  |  |  |  |  | 
11 | COc1cc(F)c(-c2c(C)nn(C)c2Nc2ccc(Cl)c(F)c2)c(F)c1 [compound 49] | 100% | 99% | 89% | 35% | 17% | 0% | 79% |  |  |  |  |  |  | 
12 | COc1cc(F)c(-c2c(C)nn(C)c2Nc2ccc(C)cc2)c(F)c1 [compound 50] | 99% | 100% | 98% | 0% | 57% | 0% | 99% |  |  |  |  |  |  | 
13 | COc1cc(F)c(-c2c(C)nn(C)c2Nc2ccc(OC)cc2OC)c(F)c1 [compound 51] | 100% | 100% | 89% | 0% | 0% | 0% | 78% |  |  |  |  |  |  | 
14 | Cc1ccc(-c2c(C)nn(C)c2Oc2ccc([N+](=O)[O-])cc2Cl)cc1 [compound 52] | 54% | 97% | 92% | 0% | 0% | 0% | 64% |  |  |  |  |  |  | 
15 | Cc1nn(Cc2ccccc2)c(Oc2c(F)cc([N+](=O)[O-])cc2F)c1-c1c(F)cc(F)cc1F [compound 53] | 0% | 0% | 0% | 0% | 0% | 0% | 0% |  |  |  |  |  |  | 
16 | COc1ccc(Oc2c(-c3ccc(C)cc3)c(C)nn2C)c(Cl)c1 [compound 55] | 6% | 98% | 41% | 0% | 0% | 0% | 73% |  |  |  |  |  |  | 
17 | COc1ccc(Nc2c(-c3ccc(Cl)cc3)c(C)nn2C)cc1 [compound 56] | 43% | 99% | 28% | 0% | 0% | 0% | 64% |  |  |  |  |  |  | 
18 | COc1ccc(Nc2c(-c3ccc(Cl)cc3Cl)c(C)nn2C)c(OC)c1 [compound 57] | 98% | 94% | 85% | 0% | 0% | 85% | 0% |  |  |  |  |  |  | 
19 | COc1cc(F)c(-c2c(C)nn(C)c2Nc2c(Cl)cc(OC)cc2OC)c(F)c1 [compound 59] | 94% | 88% | 68% | 0% | 0% | 0% | 0% |  |  |  |  |  |  | 
20 | COc1ccc(Nc2c(-c3ccc(Cl)cc3)c(C)nn2C)c(Cl)c1 [compound 60] | 75% | 97% | 79% | 0% | 0% | 59% | 0% |  |  |  |  |  |  | 
21 | CCn1nc(C)c(-c2ccc(Cl)cc2)c1Nc1c(F)cccc1F [compound 61] | 97% | 99% | 38% | 0% | 0% | 0% | 73% |  |  |  |  |  |  | 
22 | COc1cc(F)c(Nc2c(-c3ccc(Cl)cc3Cl)c(C)nn2C)c(F)c1 [compound 62] | 99% | 98% | 99% | 84% | 98% | 98% | 99% |  |  |  |  |  |  | 
23 | CCn1nc(C)c(-c2c(F)cccc2F)c1Nc1cc(OC)cc(OC)c1 [compound 63] | 0% | 0% | 0% | 0% | 0% | 0% | 0% |  |  |  |  |  |  | 
24 | Cc1nn(C)c(Oc2ncc(Cl)cc2Cl)c1-c1c(F)cc(F)cc1F [compound 64] | 97% | 100% | 95% | 0% | 80% | 0% | 98% |  |  |  |  |  |  | 
